This passage reports inhibition and IC50 results from article PMC3857281, “Molecular Mechanism of Inhibition of the Mitochondrial Carnitine/Acylcarnitine Transporter by Omeprazole Revealed by Proteoliposome Assay, Mutagenesis and Bioinformatics” (PLoS ONE, 2013).

Structures are written as SMILES. Changes are numbered by the printed parent chain.

What all share (type): biochemical
In experiment [1] the target is T1, mitochondrial carnitine/acylcarnitine transporter (CACT), C136S mutant (Rattus norvegicus, UniProt P97521, C136S).
T1 construct: gene Slc25a20; recombinant mutant rat CACT reconstituted in liposomes
T1 sequence (P97521 2-301 C136S): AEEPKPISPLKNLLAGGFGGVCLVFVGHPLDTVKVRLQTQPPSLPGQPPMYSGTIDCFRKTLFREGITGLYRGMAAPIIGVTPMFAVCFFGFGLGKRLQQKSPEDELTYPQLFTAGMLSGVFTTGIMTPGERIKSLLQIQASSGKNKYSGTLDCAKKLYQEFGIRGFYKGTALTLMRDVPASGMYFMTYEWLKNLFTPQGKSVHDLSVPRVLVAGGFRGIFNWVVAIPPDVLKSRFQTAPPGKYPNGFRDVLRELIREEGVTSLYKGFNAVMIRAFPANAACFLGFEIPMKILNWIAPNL
As to the kind of experiment: […] inhibition of antiport after […] omeprazole and removal of unreacted compound.

Experiment [2] deals with T2, mitochondrial carnitine/acylcarnitine transporter (CACT) (Rattus norvegicus, UniProt P97521).
T2 construct: gene Slc25a20; recombinant WT rat CACT expressed in E. coli, reconstituted in liposomes
T2 sequence (P97521 2-301): T1 sequence (P97521 2-301 C136S) with S135C
As to the kind of experiment: [3H]carnitine/carnitine antiport in proteoliposomes; acid-activated omeprazole (non-activated compound inactive).

The target of experiment [3] is T3, mitochondrial carnitine/acylcarnitine transporter (CACT), C283A mutant (Rattus norvegicus, UniProt P97521, C283A).
T3 construct: gene Slc25a20; recombinant mutant rat CACT reconstituted in liposomes
T3 sequence (P97521 2-301 C283A): T1 sequence (P97521 2-301 C136S) with S135C, C282A
As to the kind of experiment: […] inhibition of antiport after […] omeprazole and removal of unreacted compound.

For experiment [4], the target named is T2, mitochondrial carnitine/acylcarnitine transporter (CACT). As to the kind of experiment: [3H]carnitine/carnitine antiport in proteoliposomes.

As usually defined, the inhibition is the drop in the measured response relative to a control, in per cent. As a reminder, the IC50 is the concentration that inhibits the measured activity by half. Turning to `COc1ccc2[nH]c([S+]([O-])Cc3ncc(C)c(OC)c3C)nc2c1` (centres unmarked) [omeprazole], the results for the inhibition at 30 µM in experiment [1] and in experiment [3] were 59% and 53%, respectively. Moreover, the IC50 in experiment [2] amounted to 5.4 µM.
In experiment [4], `COc1ccnc(C[S+]([O-])c2nc3ccc(OC(F)F)cc3[nH]2)c1OC` (centres unmarked) [pantoprazole] gave an IC50 of 6.4 µM.
As for `Cc1c(OCC(F)(F)F)ccnc1C[S+]([O-])c1nc2ccccc2[nH]1` (centres unmarked) [lansoprazole], in experiment [4] (read-out: IC50), the half-inhibitory concentration (IC50) came to 80 µM.
